Data as given in US20100257640A1, “METHOD FOR GROWING SUGARCANE” (SYNGENTA CROP PROTECTION, INC., priority 2007, published 2010).

How the values were obtained:
[1] = system: sugar cane Variety RB 86-7515; assay: Greenhouse pot test: effect of formulated clothianidin on vigour; format: in vivo; settings: carretels; result in words
Protocol: Greenhouse test with sugarcane buds growing in pots were conducted to study the effect of clothianidin equivalent to an application rate of 200 g ai. ha^−1 on “vigour”, evaluating tillers, plant height, leaf width and culm diameter. This trial was conducted on sugar cane Variety RB 86-7515.
1) carretel with one bud treated with clothianidin (200 g ai. ha^−1) 2) carretel with one bud treated with clothianidin (200 g ai. ha^−1)+15% v/v of polymer 3) stalk with 3 buds untreated 4) carretel with one bud untreated+15% v/v of polymer 5) carretel with one bud untreated 6) stalk with 3 buds treated with clothianidin (200 g ai. ha^−1).
Twenty 1 L pots were filled with 16 L of clay soil, 1.6 L of sand and 8 g of nitrogen, 28 g of phosphorus (P2O5) and 16 g of potassium (K2O). Six carretels of 4 cm length with one bud were planted in each pot (treatments 1, 2, 4 and 5). Two stalks with three buds were planted in each control pot (treatments 3 and 6) to simulate conventional planting. A layer of 3 cm of soil was used to cover the carretels. The carretels of treatments 1 and 2 were treated with 200 g ai.ha^−1 of clothianidin, by dipping the carretels in a slurry for 3 min. The stalks were treated simulating a furrow application at 100 L.ha^−1 of slurry. The pots were maintained with adequate moisture during the test. […]

[2] = system: sugar cane Variety RB 86-7515; assay: Greenhouse pot test: effect of formulated fipronil on vigour; format: in vivo; settings: result in words
Protocol: Greenhouse test with sugarcane buds growing in pots were conducted to study the effect of fipronil equivalent to an application rate of 200 g. ha^−1 on “vigour”, evaluating tillers, plant height, leaf width and culm diameter on sugar cane Variety RB 86-7515.
Twenty 1 L pots were filled with 16 L of clay soil, 1.6 L of sand and 8 g of nitrogen, 28 g of phosphorus (P2O5) and 16 g of potassium (K2O). Six carretels of 4 cm length with one bud were planted in each pot (treatments 1, 2, 4 and 5). Two stalks with three buds were planted in each control pot (treatments 3 and 6) to simulate conventional planting. A layer of 3 cm of soil was used to cover the carretels. The carretels of treatments 1 and 2 were treated with 200 g ai.ha^−1 of fipronil, by dipping the carretels in the slurry for 3 min, based on the uptake capacity of carretels. The stalks were treated simulating a furrow application at 100 L.ha^−1 of slurry. Experimental design adopted was randomized complete block with four replications. The pots were maintained with adequate moisture during the test. Evaluations of: plant height, leaf width, culm diameter and number of tillers were done at 20, 30 and 42 days after planting.

[3] = system: sugar cane Variety RB 86 7515; assay: Greenhouse pot test: effect of formulated imidacloprid on vigour; format: in vivo; settings: result in words
Text: 1) carretel with one bud treated with Imidacloprid (1200 g. ha^−1) 2) carretel with one bud treated with Imidacloprid (1200 g. ha^−1)+15% v/v of polymer 3) stalk with 3 buds untreated 4) carretel with one bud untreated 5) carretel with one bud untreated+15% v/v of polymer 6) stalk with 3 buds treated with Imidacloprid (1200 g. ha^−1).
Twenty 1 L pots were filled with 16 L of clay soil, 1.6 L of sand and 8 g of nitrogen, 28 g of phosphorus (P2O5) and 16 g of potassium (K2O). Six carretels of 4 cm length with one bud were planted in each pot (treatments 1, 2, 4 and 5). Two stalks with three buds were planted in each control pot (treatments 3 and 6) to simulate conventional planting. A layer of 3 cm of soil was used to cover the carretels. The carretels of treatments 1 and 2 were treated with 1200 g ai.ha^−1 of imidacloprid, by dipping the carretels in the slurry for 3 min, based on the uptake capacity of carretels. The stalks were treated simulating a furrow application at 100 L.ha^−1 of slurry. Experimental design adopted was randomized complete block with four replications. The pots were maintained with adequate moisture during the test. Evaluations of: plant height, leaf width, culm diameter and number of tillers were done at 20, 30 and 42 days after planting.

[4] = system: Variety RB 86-7515; assay: Greenhouse pot test: effect of formulated thiamethoxam on vigour; format: in vivo, sugarcane
Protocol: This trial was conducted on Variety RB 86-7515.

[5] = system: sugar cane Variety RB 86-7515; assay: Greenhouse pot test: effect of formulated abamectin on vigour (tillers, plant height, leaf width, culm diameter); format: in vivo
Protocol: Greenhouse test with sugarcane buds growing in pots were conducted to study the effect of formulated abamectin regarding “vigour”, tillers, plant height, leaf width and culm diameter on sugar cane Variety RB 86-7515.
1) carretel with one bud treated with abamectin 2) carretel with one bud treated with abamectin+15% v/v of polymer 3) stalk with 3 buds untreated 4) carretel with one bud untreated 5) carretel with one bud untreated+15% v/v of polymer 6) stalk with 3 buds treated with abamectin.
Twenty 1 L pots were filled with 16 L of clay soil, 1.6 L of sand and 8 g of nitrogen, 28 g of phosphorus (P2O5) and 16 g of potassium (K2O). Six carretels of 4 cm length with only one bud were planted in each pot (treatments 1, 2, 4 and 5). Two stalks with three buds were planted in each control pot (treatments 3 and 6) to simulate conventional planting. A layer of 3 cm of soil was used to cover the carretels. The carretels of treatments 1, 2 were treated with 200 ml/ha of abamectin, by dipping the carretels in the slurry for 3 min, based on the uptake capacity of carretels. The stalks were treated simulating a furrow application at 100 L.ha^−1 of slurry. Experimental design adopted was randomized complete block with four replications. The pots were maintained with adequate moisture during the test. […]

CN/C(=N\[N+](=O)[O-])NCc1cnc(Cl)s1 [Clothianidin, clothianidin]
number of tillers in comparison with the corresponding control (untreated, one-bud) [1]: increased number of tillers
plant height in comparison with the corresponding control (untreated, one-bud) [1]: slight reduction in the plant height

N#Cc1nn(-c2c(Cl)cc(C(F)(F)F)cc2Cl)c(N)c1[S+]([O-])C(F)(F)F (stereo not shown) [Fipronil, fipronil]
height of the resultant plants in comparison with the control [2]: decreased the height of the resultant plants in comparison with the control
number of tillers in comparison with the control [2]: increased the number of tillers present on the plants

O=[N+]([O-])NC1=NCCN1Cc1ccc(Cl)nc1 [Imidacloprid, imidacloprid]
number of tillers in comparison with the control [3]: increase in the number of tillers in comparison with the control

CN1COCN(Cc2cnc(Cl)s2)/C1=N\[N+](=O)[O-] [Thiamethoxam, thiamethoxam]
increase in "quality" ([4]; against the other treatments, not apparent from the listed parameters): greater than the other treatments
number of tillers in comparison with the corresponding controls ([4]; carretels, result in words): increased number of tillers
plant height in comparison with the corresponding controls ([4]; carretels, result in words): reduced plant height

abamectin
Tillers ([5]; carretel with one bud, dipped 3 min, 100 g ai/ha (Untreated + Polymer 0.0), polymer 15% v/v where named, 42 days after planting): 14 number
number of tillers in comparison with the control ([5]; result in words): increase in the number of tillers in comparison with the control
